From patent publication US12129265B2, “Therapeutic agents and uses thereof” (Ankh Life Sciences Limited, priority 2020, dated 2024)

Tests used:
Assay in all cases: CellTiter-Glo in vitro cell proliferation assay, Example 8
A498 cells = format: cell-based, Human; details: Homo sapiens; A498, Renal, 72 hours; read-out: Mean IC50
Outline: (§1)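 72 h continuous exposure, 37 °C, humidified; conc. 0.0075–100 μM (DMSO); CellTiter-Glo luminescence, 60 min RT incubation before read.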

HEC-1a cells = format: cell-based, Human; details: Homo sapiens, Endometrial, 72 hours, read-out: Mean IC50
Outline: as §1

H1975 (EGFR mut) cells = format: cell-based, Human; details: Homo sapiens, NCI-H1975, Non Small Cell Lung, 72 hours, read-out: Mean IC50
Outline: as §1

DOHH-2 cells = format: cell-based, Human; details: Homo sapiens; DOHH-2, Diffuse Large B-Cell Lymphoma, 72 hours; read-out: Mean IC50
Outline: as §1

KHM-1B cells = format: cell-based, Human; details: Human Myeloma, 72 hours, read-out: Mean IC50
Outline: as §1

KMM-1 cells = format: cell-based, Human; details: KMM-1, Human Myeloma, 72 hours; read-out: Mean IC50
Outline: as §1

AN3CA cells = format: cell-based, Human; details: Homo sapiens, AN3-CA, Endometrial, 72 hours, read-out: Mean IC50
Outline: as §1

A2780CP cells = format: cell-based, Human; details: Homo sapiens, A2780C/P, Ovarian, 72 hours, read-out: Mean IC50
Outline: as §1

HCC70 cells = format: cell-based, Human; details: Homo sapiens; HCC70, Triple Negative Breast, 72 hours; read-out: Mean IC50
Outline: as §1

FaDu cells = format: cell-based, Human; details: Homo sapiens, Squamous, 72 hours, read-out: Mean IC50
Outline: as §1

KMS-27 cells = format: cell-based, Human; details: KMS-27, Human Myeloma, 72 hours; read-out: Mean IC50
Outline: as §1

H929 cells = format: cell-based, Human; details: NCI-H929; H929, Human Myeloma, 72 hours; read-out: Mean IC50
Outline: as §1

KMS-11 cells = format: cell-based, Human; details: KMS-11, Human Myeloma, 72 hours; read-out: Mean IC50
Outline: as §1

MOLP-8 cells = format: cell-based, Human; details: MOLP-8, Human Myeloma, 72 hours; read-out: Mean IC50
Outline: as §1

OCI-LY3 cells = format: cell-based, Human; details: Homo sapiens; OCI-LY3, Diffuse Large B-Cell Lymphoma, 72 hours; read-out: Mean IC50
Outline: as §1

MM.1s cells = format: cell-based, Human; details: MM1.S; MM.IS, Human Myeloma, 72 hours; read-out: Mean IC50
Outline: as §1

L363 cells = format: cell-based, Human; details: L-363; L363, Human Myeloma, 72 hours; read-out: Mean IC50
Outline: as §1

H1650 (EGFR mut) cells = format: cell-based, Human; details: Homo sapiens, NCI-H1650, Non Small Cell Lung, 72 hours, read-out: Mean IC50
Outline: as §1

A2780 cells = format: cell-based, Human; details: Homo sapiens; A2780, Ovarian, 72 hours; read-out: Mean IC50
Outline: as §1

MDA-MB-468 cells = format: cell-based, Human; details: Homo sapiens; MDA-MB-468, Triple Negative Breast, 72 hours; read-out: Mean IC50
Outline: as §1

SU-DHL-6 cells = format: cell-based; details: Homo sapiens; SU-DHL-6, Diffuse Large B-Cell Lymphoma, 72 hours; read-out: Mean IC50
Protocol: (§2) In this Example, in vitro cell proliferation assays were performed using: (1) Human Myeloma tumor cell lines; (2) Human Lymphoma tumor cell lines; (3) Solid Human tumor cell lines; and (4) Parental, Lenalidomide resistant and Bortezomib resistant Jeko-1 Mantle cell Lymphoma tumor cell lines. The compounds tested were three diharmaline compounds, namely the 518B562 (or simply 562), 560, and 561 compounds. In addition, a monoharmaline product designated as 518F014 was also tested. This monoharmaline product had the following structure:
(§3) Each proliferation assay was carried out as follows. The test cells were plated in growth media using a 384-well microtiter plate at 50 μL volume. The cells were incubated for 24 hours at 37° C. in a humidified incubator. After 24 hours of incubation, the test compounds were added to the test wells in DSMO solvent, at concentrations ranging from 0.0075-100 μM. Control wells received equal volumes of DSMO, without compound. Following drugging, the cells were incubated for 72 hours at 37° C. in a humidified incubator. After this exposure, 100 μL of a 1:1 mixture of sterile water and CellTiter-Glo® reagent (Promega) was added to each well. The plates were then incubated for 60 minutes at room temperature, followed by recording the luminescence value of each well using a luminometer as a measure of cell proliferation.

N87 cells = format: cell-based; details: Homo sapiens; N87, Gastric, 72 hours; read-out: Mean IC50
Protocol: as §2, §3

SU-DHL-4 cells = format: cell-based; details: Homo sapiens; SU-DHL-4, Diffuse Large B-Cell Lymphoma, 72 hours; read-out: Mean IC50
Protocol: as §2, §3

RXF-393 cells = format: cell-based; details: Homo sapiens; RXF-393, Renal, 72 hours; read-out: Mean IC50
Protocol: as §2, §3

SMILES: COc1ccc2c3c([nH]c2c1)C(CC(CC1=NCCc2c1[nH]c1cc(OC)ccc21)c1ccc(O)c(OC)c1)=NCC3 [compound 562]
- IC50 (A498 cells): 1.76 µM
- IC50 (HEC-1a cells): 4.75 µM
- IC50 (H1975 (EGFR mut) cells): 1.84 µM
- IC50 (DOHH-2 cells): 2.42 µM
- IC50 (KHM-1B cells): 3.37 µM
- IC50 (KMM-1 cells): 4.04 µM
- IC50 (AN3CA cells): 1.79 µM
- IC50 (A2780CP cells): 2.28 µM
- IC50 (HCC70 cells): 3.45 µM
- IC50 (FaDu cells): 1.98 µM
- IC50 (KMS-27 cells): 2.1 µM
- IC50 (H929 cells): 4.5 µM
- IC50 (KMS-11 cells): 4.93 µM
- IC50 (MOLP-8 cells): 1.38 µM
- IC50 (OCI-LY3 cells): 2.38 µM
- IC50 (MM.1s cells): 1.67 µM
- IC50 (L363 cells): 2 µM
- IC50 (H1650 (EGFR mut) cells): 2.3 µM
- IC50 (A2780 cells): 1.14 µM
- IC50 (MDA-MB-468 cells): 2.05 µM
- IC50 (SU-DHL-6 cells): 0.819 µM
- IC50 (N87 cells): 1.85 µM
- IC50 (SU-DHL-4 cells): 1.81 µM
- IC50 (RXF-393 cells): 1.79 µM
